According to patent publication US20260070924A1, “INDAZOLE MACROCYCLES AND THEIR USE” (BLOSSOMHILL THERAPEUTICS, INC., priority 2022, published 2026):

Columns and labels:
MV-4-11 tumor = assay: Cell-derived xenograft (CDX) tumor model; assay type: in vivo; settings: MV-4-11 CDX, mice, 20 days
Protocol: (§1) Tumor cells were cultured using standard techniques described above and were harvested and pelleted by centrifugation at 1000 rpm for 5 minutes. The pelleted cells were washed once with serum-free medium followed by subsequent re-suspension in the serum-free medium supplemented with 50% matrigel (Corning, Inc). Five million tumor cells were implanted subcutaneously to the right flank of each mouse, followed by tumor volume and body weight measurement once or twice per week with an electronic caliper (Fowler) and a balance, respectively. When the average tumor size reached a pre-determined volume, the mice were grouped and treated with Ex. 6. One group of mice were treated with vehicle as control. During treatment, mice were monitored daily by cage side observation. The tumor volume (TV) and body weight was measured twice or three times per week during the treatment. Study ended either after 4-5 weeks of treatment or tumor volume of any mice reached 1000 or 2000 mm^3. Tumor growth inhibition (TGI) was be calculated as follows: […]

MOLM-13 tumor = assay: Cell-derived xenograft (CDX) tumor model; assay type: in vivo; settings: MOLM-13 CDX, mice, 13 days
Protocol: as §1

SW480 tumor = assay: Cell-derived xenograft (CDX) tumor model; assay type: in vivo; settings: mice, oral 25 mg/kg QD, 28 days
Protocol: as §1

IMR-32 tumor = assay: Cell-derived xenograft (CDX) tumor model; assay type: in vivo; settings: IMR-32 CDX, mice, oral 25 mg/kg QD, 8 days
Protocol: as §1

SW403 tumor = assay: Cell-derived xenograft (CDX) tumor model; assay type: in vivo; settings: mice, oral 25 mg/kg QD, 20 days
Protocol: as §1

CLK3 = CLK3 (Homo sapiens (Human), UniProt P49761); assay: CLK kinase activity assay (ADP-Glo); assay type: biochemical
Sequence of CLK3 (P49761 whole entry): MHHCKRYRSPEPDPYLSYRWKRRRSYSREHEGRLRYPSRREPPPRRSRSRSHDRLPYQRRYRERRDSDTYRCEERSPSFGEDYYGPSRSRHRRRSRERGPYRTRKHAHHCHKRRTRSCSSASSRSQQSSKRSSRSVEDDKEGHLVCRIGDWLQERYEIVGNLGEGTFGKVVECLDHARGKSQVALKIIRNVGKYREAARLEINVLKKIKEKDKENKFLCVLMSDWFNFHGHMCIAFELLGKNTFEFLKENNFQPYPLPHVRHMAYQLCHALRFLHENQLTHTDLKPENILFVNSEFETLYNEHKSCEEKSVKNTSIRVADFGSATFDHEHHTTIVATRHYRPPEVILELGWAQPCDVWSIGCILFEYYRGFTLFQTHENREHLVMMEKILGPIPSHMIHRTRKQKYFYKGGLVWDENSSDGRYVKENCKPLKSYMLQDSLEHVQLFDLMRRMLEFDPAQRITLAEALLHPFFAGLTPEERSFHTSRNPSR
Protocol: (§2) Kinase protein and substrate were pre-diluted in the HEPES assay buffer (100 mM HEPES, pH 7.5, 0.01% Triton X-100, 0.1% BSA, 5 mM MgCl2, 1 mM DTT, 10 μM Sodium Orthovanadate, 10 μM Beta-Glycerophosphate) dispensed into 384 well plate (5 μL per well). Control samples (0%-inhibition in the absence of inhibitor, DMSO only) and 100%-inhibition (in the absence of enzyme) were assembled in replicates of six and were used to calculate %-inhibition in the presence of compounds. Test compounds were added to the protein samples by acoustic dispensing (Labcyte Echo550). Concentration of DMSO was equalized to 1% in all samples. Reactions were initiated by addition of ATP by acoustic dispensing (Labcyte Echo550) and incubated according to assay specific incubation time. After incubation, 5 uL of Promega ADP-Glo reagent was added and incubated for 40 minutes. After 40 minutes, 10 uL of Promega kinase detection reagent was added. After 10 min of incubation with Kinase detection reagent, the luminescence was read on microplate reader (Biotek Synergy).

CLK1 = CLK1 (Homo sapiens (Human), UniProt P49759); assay: CLK kinase activity assay (ADP-Glo); assay type: biochemical
Sequence of CLK1 (P49759 whole entry): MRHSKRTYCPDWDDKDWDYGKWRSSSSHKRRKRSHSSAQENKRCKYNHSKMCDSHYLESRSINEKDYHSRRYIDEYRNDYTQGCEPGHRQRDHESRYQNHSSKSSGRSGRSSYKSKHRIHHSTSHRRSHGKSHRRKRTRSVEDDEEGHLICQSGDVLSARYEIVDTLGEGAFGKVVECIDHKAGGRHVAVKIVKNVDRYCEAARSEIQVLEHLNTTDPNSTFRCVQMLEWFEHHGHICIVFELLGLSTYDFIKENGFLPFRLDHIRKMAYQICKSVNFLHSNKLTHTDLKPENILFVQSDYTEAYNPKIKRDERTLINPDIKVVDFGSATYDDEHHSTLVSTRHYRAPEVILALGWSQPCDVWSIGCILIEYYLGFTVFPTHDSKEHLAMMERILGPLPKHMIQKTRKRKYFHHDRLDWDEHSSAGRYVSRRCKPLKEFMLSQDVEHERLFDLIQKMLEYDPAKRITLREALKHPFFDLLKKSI
Protocol: as §2

CLK2 = CLK2 (Homo sapiens (Human), UniProt P49760); assay: CLK kinase activity assay (ADP-Glo); assay type: biochemical
Sequence of CLK2 (P49760 whole entry): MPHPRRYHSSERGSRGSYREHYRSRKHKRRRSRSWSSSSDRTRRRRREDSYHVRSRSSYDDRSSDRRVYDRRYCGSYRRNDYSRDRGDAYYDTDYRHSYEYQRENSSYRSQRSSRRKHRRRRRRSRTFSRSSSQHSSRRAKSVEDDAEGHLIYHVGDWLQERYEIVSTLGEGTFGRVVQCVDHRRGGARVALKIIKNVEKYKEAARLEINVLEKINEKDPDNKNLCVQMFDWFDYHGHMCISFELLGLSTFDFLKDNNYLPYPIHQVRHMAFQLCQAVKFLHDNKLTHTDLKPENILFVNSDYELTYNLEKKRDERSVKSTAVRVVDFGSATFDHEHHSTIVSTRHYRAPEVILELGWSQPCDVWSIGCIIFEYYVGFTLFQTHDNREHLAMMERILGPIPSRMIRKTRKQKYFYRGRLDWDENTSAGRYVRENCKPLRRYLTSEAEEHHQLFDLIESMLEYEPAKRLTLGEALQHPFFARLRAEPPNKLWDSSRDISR
Protocol: as §2

CLK4 = CLK4 (Homo sapiens (Human), UniProt Q9HAZ1); assay: CLK kinase activity assay (ADP-Glo); assay type: biochemical
Sequence of CLK4 (Q9HAZ1 whole entry): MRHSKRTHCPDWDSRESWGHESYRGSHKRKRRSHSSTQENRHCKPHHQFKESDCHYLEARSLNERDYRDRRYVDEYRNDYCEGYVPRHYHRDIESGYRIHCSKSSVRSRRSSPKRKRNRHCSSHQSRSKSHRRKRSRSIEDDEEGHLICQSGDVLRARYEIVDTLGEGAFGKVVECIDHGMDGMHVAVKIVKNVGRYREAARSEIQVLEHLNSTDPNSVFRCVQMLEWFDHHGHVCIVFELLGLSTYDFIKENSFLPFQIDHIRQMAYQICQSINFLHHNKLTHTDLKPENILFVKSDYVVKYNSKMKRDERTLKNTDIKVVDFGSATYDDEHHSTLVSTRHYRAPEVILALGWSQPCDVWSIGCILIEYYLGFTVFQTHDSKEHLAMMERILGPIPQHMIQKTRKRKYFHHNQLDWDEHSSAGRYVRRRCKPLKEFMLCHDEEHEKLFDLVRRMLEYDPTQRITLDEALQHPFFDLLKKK
Protocol: as §2

MV-4-11 cells = assay: MV-4-11 cell proliferation assay (CellTiter-Glo 2.0); assay type: cell-based; settings: MV-4-11, 384-well, 11-dose dilution series; read-out: IC50, inhibition of MV-4-11 cell proliferation
Protocol: MV-4-11 cell line was purchased from ATCC and maintained in RPMI medium supplemented with 10% fetal bovine serum and 100 U/mL of penicillin/streptomycin. One thousand MV-4-11 cells/50 μl per well were seeded in white 384-well plate, followed by treatment with indicated compounds in a 11-dose dilution series. Cell proliferation was measured using CellTiter-Glo 2.0 luciferase-based ATP detection assay (Promega, Madison, WI) following the manufacturer's protocol. Plates were then read on a TECAN Sparks multimode microplate reader. Data was analyzed using GraphPad Prism 9 (GraphPad Software, San Diego, CA) to obtain IC50 values.

Work on `CCc1nn(C)c2c1/C=C/c1n[nH]c3ccc(cc13)-c1cnn(C)c1OCCN(C)C2=O` [Ex. 6, (17E)-16-ethyl-8,12,14-trimethyl-2,11,12,14-tetrahydro-8H-3,5-ethenotripyrazolo[3,4-f:3′,4′-j:4″,3″-n][1,4]oxazacyclopentadecin-13(10H)-one] yielded a TGI % (MV-4-11 tumor; oral 6.25 mg/kg QD) of 98.8%, a TGI % (MV-4-11 tumor; oral 12.5 mg/kg QD) of 189% and a TGI % (MV-4-11 tumor; oral 25 mg/kg QD, 5dOn-2dOff) of 200%. The TGI % (MV-4-11 tumor; oral 25 mg/kg QD) was 200%, the TGI % (MOLM-13 tumor; oral 12.5 mg/kg QD) was 74% and the TGI % (MOLM-13 tumor; oral 25 mg/kg QD) was 94%. It also gave a TGI % (SW480 tumor) of 93%, a TGI % (IMR-32 tumor) of 82% and a TGI % (SW403 tumor) of 84%. The IC50 (CLK3) was 5.87 nM, the IC50 (CLK1) was 0.134 nM and the IC50 (CLK2) was 0.165 nM. For the same molecule, the IC50 (CLK4) was 0.446 nM and the IC50 (MV-4-11 cells) was 0.3 nM.
